Measurements published in ChEMBL document CHEMBL1131908 (Bioorg Med Chem Lett, 1999).

Legend:
[1] = molecular target: T1, Delta-type opioid receptor (Rattus norvegicus, UniProt P33533); experiment: Ability to displace [3H]DADL from delta opioid receptor
[2] = molecular target: T2, Kappa-type opioid receptor (Cavia porcellus, UniProt P41144); experiment: Ability to displace [3H]U-69593 from kappa opioid receptor
[3] = molecular target: Opioid receptors; mu & delta (Homo sapiens) (UniProt P41143+P35372); experiment: Ratio of binding affinities of mu and delta opioid receptors; type: protein assay
Chain of Opioid receptors; mu & delta (Homo sapiens) (P35372 whole entry, looked up): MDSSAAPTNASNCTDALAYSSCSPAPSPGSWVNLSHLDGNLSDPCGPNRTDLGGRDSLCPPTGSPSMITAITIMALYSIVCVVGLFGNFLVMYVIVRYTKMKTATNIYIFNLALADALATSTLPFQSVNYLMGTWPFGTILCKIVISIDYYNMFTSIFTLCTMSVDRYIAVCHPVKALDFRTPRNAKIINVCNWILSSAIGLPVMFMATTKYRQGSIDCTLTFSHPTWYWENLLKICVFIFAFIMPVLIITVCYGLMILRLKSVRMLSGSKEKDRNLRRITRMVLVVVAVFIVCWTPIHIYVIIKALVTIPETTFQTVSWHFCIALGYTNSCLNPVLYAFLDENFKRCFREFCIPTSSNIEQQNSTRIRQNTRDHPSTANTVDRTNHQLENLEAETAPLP
Chain of Opioid receptors; mu & delta (Homo sapiens) (P41143 whole entry, looked up): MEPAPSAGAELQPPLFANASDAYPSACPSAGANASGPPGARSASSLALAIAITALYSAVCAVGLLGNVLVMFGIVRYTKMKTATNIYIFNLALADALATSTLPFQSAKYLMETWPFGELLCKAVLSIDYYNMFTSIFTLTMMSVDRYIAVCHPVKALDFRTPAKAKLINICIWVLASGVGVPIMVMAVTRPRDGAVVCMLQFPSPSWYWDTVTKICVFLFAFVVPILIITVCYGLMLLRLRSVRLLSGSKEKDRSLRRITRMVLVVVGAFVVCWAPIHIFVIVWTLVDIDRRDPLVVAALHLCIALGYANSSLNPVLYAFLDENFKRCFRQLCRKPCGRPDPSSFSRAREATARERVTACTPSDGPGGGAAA

[4] = molecular target: T3, Mu-type opioid receptor (Rattus norvegicus, UniProt P33535); experiment: Ability to displace [3H]DAMGO from mu opioid receptor
T3 sequence (P33535 whole entry): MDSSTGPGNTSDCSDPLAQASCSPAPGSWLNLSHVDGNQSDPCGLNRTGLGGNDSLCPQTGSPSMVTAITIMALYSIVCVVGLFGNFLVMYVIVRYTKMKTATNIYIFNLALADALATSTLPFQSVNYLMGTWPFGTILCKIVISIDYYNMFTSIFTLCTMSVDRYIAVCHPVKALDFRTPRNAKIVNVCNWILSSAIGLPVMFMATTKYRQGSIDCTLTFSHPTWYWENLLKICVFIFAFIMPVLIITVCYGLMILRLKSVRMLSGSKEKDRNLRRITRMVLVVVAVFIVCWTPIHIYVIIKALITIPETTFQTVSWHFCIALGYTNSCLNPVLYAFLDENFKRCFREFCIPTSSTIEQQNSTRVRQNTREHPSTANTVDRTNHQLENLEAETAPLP

[5] = molecular target: T1, Delta-type opioid receptor; experiment: Ability to inhibit binding of SNC80 to delta opioid receptor
[6] = molecular target: T2, Kappa-type opioid receptor; experiment: Ability to inhibit binding of U-69,593 to kappa opioid receptor
[7] = molecular target: T3, Mu-type opioid receptor; experiment: Ability to inhibit binding of [3H]DAMGO to mu opioid receptor

T2 sequence (P41144 whole entry): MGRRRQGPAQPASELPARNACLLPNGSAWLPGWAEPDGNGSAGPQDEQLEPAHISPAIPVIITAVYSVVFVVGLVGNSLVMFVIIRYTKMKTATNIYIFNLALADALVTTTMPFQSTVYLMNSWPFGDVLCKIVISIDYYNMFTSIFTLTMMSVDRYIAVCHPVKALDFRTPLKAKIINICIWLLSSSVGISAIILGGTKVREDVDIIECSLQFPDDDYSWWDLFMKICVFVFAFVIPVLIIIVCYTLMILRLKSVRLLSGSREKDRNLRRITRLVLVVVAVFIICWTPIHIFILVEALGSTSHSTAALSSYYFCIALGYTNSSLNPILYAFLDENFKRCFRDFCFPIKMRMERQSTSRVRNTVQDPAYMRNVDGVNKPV
T1 sequence (P33533 whole entry): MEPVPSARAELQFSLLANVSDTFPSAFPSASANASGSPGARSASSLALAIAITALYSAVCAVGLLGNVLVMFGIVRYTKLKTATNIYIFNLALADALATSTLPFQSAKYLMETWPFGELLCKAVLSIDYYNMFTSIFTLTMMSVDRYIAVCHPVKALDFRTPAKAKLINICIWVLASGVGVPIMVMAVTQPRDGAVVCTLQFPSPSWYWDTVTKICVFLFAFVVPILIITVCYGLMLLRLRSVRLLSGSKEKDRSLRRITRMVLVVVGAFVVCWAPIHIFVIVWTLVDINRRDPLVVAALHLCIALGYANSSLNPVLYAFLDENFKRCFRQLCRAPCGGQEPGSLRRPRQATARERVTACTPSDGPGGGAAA

SMILES	Ki [1] [nM]	Ki [2] [nM]	Ratio [3]	Ki [4] [nM]	Ki [5] [nM]	Ki [6] [nM]	Ki [7] [nM]
O[C@@]12Cc3c([nH]c4ccccc34)C3Oc4c(OCCCc5ccccc5)ccc5c4[C@@]31CCN(CC1CC1)[C@@H]2C5 (some centres undefined)	99	> 5320	54	> 6250			
Oc1ccc2c3c1O[C@H]1c4[nH]c5ccccc5c4C[C@@]4(O)[C@@H](C2)N(CC2CC2)CC[C@]314 [NALTRINDOLE]					0.062		
O[C@@]12Cc3c([nH]c4ccccc34)C3Oc4c(OCCc5ccccc5)ccc5c4[C@@]31CCN(CC1CC1)[C@@H]2C5 (some centres undefined)	1040	> 7040	7	> 6250			
O[C@@]12Cc3c([nH]c4ccccc34)C3Oc4c(OCc5ccccc5)ccc5c4[C@@]31CCN(CC1CC1)[C@@H]2C5 (some centres undefined)	103	728	4	396			
COc1ccc2c3c1OC1c4[nH]c5ccccc5c4C[C@@]4(O)[C@@H](C2)N(CC2CC2)CC[C@]314 (some centres undefined)	6.57	3910		2510	9	1760	411
